Results: US8231693B2, “5-substituted 2-(alkoxymethyl)furans” (Furanix Technologies B.V., priority 2007, dated 2012)

Assay: Fuel solubility: miscibility in blends with commercial diesel
Assay type: physicochemical
Description: Fuel solubility is a primary concern for diesel fuel applications. Not all highly polar oxygenates have good solubility in the current commercial diesel fuels.

[1] = all blend ratios with commercial diesel

Row | SMILES | miscibility with commercial diesel [1] | miscibility with commercial diesel (5 vol % blend with commercial diesel) | miscibility with commercial diesel (25 vol % blend with diesel) | miscibility with commercial diesel (40 vol % blend with diesel)
1 | CCOCc1ccc(COC(C)(C)C)o1 [5-(tertbutoxymethyl)-2-(ethoxymethyl)furan] | miscible in all blend ratio's | – | – | –
2 | CCOCc1ccc(COCC)o1 [2,5-di(ethoxymethyl)furan] | miscible in all blend ratio's | – | – | –
3 | CCOCc1ccc(C=O)o1 [EMF, 5-(ethoxymethyl)furfural] | – | completely miscible | phase separation occurs | phase separation occurs
